From US20210317134A1, “UBIQUITIN-SPECIFIC-PROCESSING PROTEASE 7 (USP7) MODULATORS AND USES THEREOF” (RAPT THERAPEUTICS, INC., priority 2019, published 2021)

Target: USP7 (Homo sapiens, UniProt Q93009)
Test: USP7 inhibitory potency (Table 1)
Format: biochemical

USP7, sequence (Q93009 whole entry): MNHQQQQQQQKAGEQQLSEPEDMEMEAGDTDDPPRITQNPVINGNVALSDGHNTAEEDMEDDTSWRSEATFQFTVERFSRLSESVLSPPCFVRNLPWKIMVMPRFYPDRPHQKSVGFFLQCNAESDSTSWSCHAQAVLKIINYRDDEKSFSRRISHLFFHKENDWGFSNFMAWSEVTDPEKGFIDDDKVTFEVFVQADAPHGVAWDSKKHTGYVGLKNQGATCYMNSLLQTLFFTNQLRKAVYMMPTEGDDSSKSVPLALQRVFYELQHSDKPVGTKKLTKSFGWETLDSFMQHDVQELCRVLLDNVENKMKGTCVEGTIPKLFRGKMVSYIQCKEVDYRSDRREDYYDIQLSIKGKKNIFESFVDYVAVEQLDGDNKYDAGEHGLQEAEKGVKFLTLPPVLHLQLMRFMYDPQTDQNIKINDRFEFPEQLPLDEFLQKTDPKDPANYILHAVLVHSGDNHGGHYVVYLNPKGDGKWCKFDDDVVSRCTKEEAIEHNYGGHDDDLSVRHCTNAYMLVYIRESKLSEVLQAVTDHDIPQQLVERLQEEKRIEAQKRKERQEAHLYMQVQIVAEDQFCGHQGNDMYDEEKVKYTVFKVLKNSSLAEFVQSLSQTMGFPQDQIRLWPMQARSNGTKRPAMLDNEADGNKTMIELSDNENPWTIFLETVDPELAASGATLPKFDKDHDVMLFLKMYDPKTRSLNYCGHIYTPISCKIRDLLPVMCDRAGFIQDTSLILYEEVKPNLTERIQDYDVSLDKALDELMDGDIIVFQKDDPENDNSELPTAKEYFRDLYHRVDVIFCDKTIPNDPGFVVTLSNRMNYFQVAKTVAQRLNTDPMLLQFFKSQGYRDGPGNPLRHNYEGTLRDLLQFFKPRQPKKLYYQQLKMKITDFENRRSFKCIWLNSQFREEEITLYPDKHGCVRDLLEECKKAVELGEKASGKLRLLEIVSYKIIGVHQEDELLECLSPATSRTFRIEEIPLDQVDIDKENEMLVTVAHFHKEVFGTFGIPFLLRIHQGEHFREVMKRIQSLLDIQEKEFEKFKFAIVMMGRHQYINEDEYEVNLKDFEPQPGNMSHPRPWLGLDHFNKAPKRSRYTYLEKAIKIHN

| SMILES | IC50 [µM] |
| --- | --- |
| CCC(O)c1cc2nccc(-c3cc(Cl)cc4c3O[C@@H](c3onc5c3CNCC5)C4)c2o1 (stereo partly drawn) [drawing 1618, 1-(7-((R)-5-chloro-2-(4,5,6,7-tetrahydroisoxazolo[4,3-c]pyridin-3-yl)-2,3-dihydrobenzofuran-7-yl)furo[3,2-b]pyridin-2-yl)propan-1-ol] | < 1 |
| COC(=O)c1ccc2c(-c3cc(Cl)cc4c3OC(C(=O)N3CCNCC3)C4)ccnc2c1 (centres unmarked) [methyl 4-(5-chloro-2-(piperazine-1-carbonyl)-2,3-dihydrobenzofuran-7-yl)quinoline-7-carboxylate] | 10 to 30 |
